The nature of data set [1]: exposure after administration by oral route. It is filed as in vivo. To be noted: qualitative.
The subject of a further data set is rat motor neurons. The data set can be described thus: in vitro model of trophic deprivation of rat motor neurons (survival, calcein fluorescence after 3 days). The data set is classed as cell-based. To be noted: E14 rat motor neurons, Neurobasal medium without neurotrophic factors. The source says: Reference can usefully be made to the applicant's patent application WO 0142784 on the culturing of motor neurons of the spinal cord.
The spinal cord of E14 rat embryos is dissected and the ventral part is dissociated by trituration after trypsination.
The motor neurons are separated from the other spinal cells by a known method (Camu et al., 1993, Purification of spinal motoneurons from chicken and rat embryos by immunopanning. In “Immunoselection Strategies for Neural cell culture”, Neuroprotocols: A companion to Methods in Neurosciences 2, 191-199; Henderson et al., 1993, Neutrophins promote motor neuron survival and are present in embryonic limb bud. Nature 363 (6426):266-70).
The cells are centrifuged on a density gradient. The fraction of large cells (the least dense) is enriched with motor neurons. The cells in this fraction are incubated with an anti-p75 antibody, a surface antigen present on the motor neurons.
Secondary antibodies coupled to magnetic beads are added and the mixture of cells is passed through a column in a magnet (Arce et al., 1999 Cardiotrophin-1 requires LIFRbeta to promote survival of mouse motoneurons purified by a novel technique. J. Neurosci Res 55 (1): 119-26). Only the motor neurons are retained: their purity is of the order of 90%.
The motor neurons are seeded at a low density in culture wells on a polyornithine-laminin substrate in a neurobasal medium (GIBCO) supplemented according to Raoul et al., 1999, Programmed cell death of embryonic motoneurons triggered through the Fas death receptor. J Cell Biol 147 (5):1049-62.
Negative controls (absence of trophic factors) and positive controls (in the presence of BDNF (Brain-Derived Neurotrophic Factor) at 1 ng/ml, GDNF (Glial-Derived Neurotrophic Factor) at 1 ng/ml and CNTF (Ciliary Neurotrophic Factor) at 10 ng/ml, marketed by the American company PEPROTECH, Inc. and the company Sigma-Aldrich, are included in each series.
The compounds to be tested are added 60 minutes after seeding and the cultures are maintained at 37° C. under 5% CO2 for 3 days.
The motor neurons have a spontaneous tendency to die in the absence of neurotrophic factors (Pettmann and Henderson, 1998, Neuronal cell death. Neuron 20 (4):633-47). After 3 days, the survival is evaluated by a fluorescence measurement after incubation of the cells in the presence of calcein which becomes fluorescent in living cells.
After 3 days in culture at 37° C., under 5% CO2 and under saturation humidity, up to 50% of the motor neurons initially seeded survive in the medium supplemented with neurotrophic factors, whilst less than 15% of the motor neurons survive in culture medium without added neurotrophic factors.
The neuroprotective activity of the compounds to be tested was evaluated by their ability to prevent the death of the motor neurons when they are added to the Neurobasal medium (GIBCO) in comparison with the survival of the motor neurons in medium with added neurotrophic factors.
This survival rate is expressed by the number of living cells after treatment with the compound to be tested compared with the survival induced by the neurotrophic factors. This ratio can therefore represent the survival percentage due to the compound tested compared with the survival induced by the neurotrophic factors. If the ratio is greater than 0, the effect of the compounds on the survival of the motor neurons is positive.

Regarding `CC(C)CCC[C@@H](C)[C@H]1CCC2C3CCC4=C(F)/C(=N/O)CC[C@]4(C)C3CC[C@@]21C` (stereo partly drawn) [Example 2b, 3-oxyimino-4-fluoro-cholest-4-ene], the “exposure when administered by oral route” value in data set [1] was “improved exposure”. In addition, the “Ratio (survival of motor neurons with compound compared with the survival induced by the neurotrophic factors)” value (“Ratio” below) with rat motor neurons (Concentration 3 μM) is given as 0.73.
As for `CC(C)CCC[C@@H](C)[C@H]1CCC2C3C[C@@H](F)C4=CC(=NO)CC[C@]4(C)C3CC[C@@]21C` (stereo partly drawn) [Example 2c, 3-oxyimino-6β-fluoro-cholest-4-ene], the “Ratio” value with rat motor neurons (Concentration 3 μM) was 0.50.
Still for that read-out and setting: next, `CC(C)CCC[C@@H](C)[C@H]1CCC2C3CCC4=C/C(=N/O)C(F)(F)C[C@]4(C)C3CC[C@@]21C` (stereo partly drawn) [Example 2d, 3-oxyimino-2,2-difluoro-cholest-4-ene]: 0.50.
The same measure, in the same setting: to `CC(C)CCC[C@@H](C)[C@H]1CC[C@H]2[C@@H]3CC(F)C4=CC(=NO)C(F)C[C@]4(C)[C@H]3CC[C@]12C` (stereo partly drawn) [Example 2e, 3-oxyimino-2,6-difluoro-cholest-4-ene] belongs 0.37; to `CC(C)CCC[C@@H](C)[C@H]1CC[C@H]2[C@@H]3CCC4=CC(=NO)[C@H](F)C[C@]4(C)[C@H]3CC[C@]12C` [Example 2f, 3-oxyimino-2α-fluoro-cholest-4-ene], 0.27.
With `CC(CCC[C@@H](C)[C@H]1CC[C@H]2[C@@H]3CCC4=CC(=NO)CC[C@]4(C)[C@H]3CC[C@]12C)N(C)c1ccc([N+](=O)[O-])c2nonc12` (stereo partly drawn) [Example 2h, 3-oxyimino-25-[methyl(7-nitro-2,1,3-benzoxadiazol-4-yl)amino]-27-norcholest-4-ene], the “Ratio” value with rat motor neurons (Concentration 1 μM) is listed as 0.66.
As to `CC(CCCC(C)N(C)C(=O)CCCCC1SCC2NC(=O)NC21)C1CCC2C3CCC4=CC(=NO)CCC4(C)C3CCC12C` (stereo not drawn) [Example 2i, 3-oxyimino-25-((N-(+)-biotinoyl-N-methyl)amino)-27-norcholest-4-ene], the “Ratio” value with rat motor neurons (Concentration 3 μM) is reported as 0.42.
Same read-out and setting: to `CC(C)CCC[C@@H](C)[C@H]1CC[C@H]2[C@@H]3CCC4=CC(=NO)CC[C@]4(CO)[C@H]3CC[C@]12C` [Example 2k, 3-oxyimino-19-hydroxy-cholest-4-ene] belongs 0.49.
Take `CC(C)CCC[C@@H](C)[C@H]1CC[C@H]2[C@@H]3CCC4=CC(=NO)CC[C@]4(COC(=O)CCCCC4SCC5NC(=O)NC54)[C@H]3CC[C@]12C` (stereo partly drawn) [Example 2l, 3-oxyimino-19-biotinyloxy-cholest-4-ene]: the “Ratio” value in the data set on rat motor neurons (Concentration 1 μM) is 0.32.
Same read-out and setting: next, `CC(C)CCC[C@@H](C)[C@H]1CC[C@H]2[C@@H]3CCC4=CC(=NO)C(C)C[C@]4(C)[C@H]3CC[C@]12C` (stereo partly drawn) [Example 2m, 3-oxyimino-2-methyl-cholest-4-ene]: 0.42.
Take `COC1=C2CC[C@H]3[C@@H]4CC[C@H]([C@H](C)CCCC(C)C)[C@@]4(C)CC[C@@H]3[C@@]2(C)CCC1=NO` [Example 2n, 3-oxyimino-4-methoxy-cholest-4-ene]: the “Ratio” value in the data set on rat motor neurons (Concentration 1 μM) was 0.34.

The record behind these values is patent US9447140B2, “Cholest-4-en-3-one oxime derivatives, pharmaceutical compositions containing same, and preparation method” (TROPHOS, priority 2008, dated 2016).
